Data set [1] concerns laccase. The data set can be described thus: Laccase mediator system (LMS) and oxycodone: oxygen concentration measurement. Type of data set: biochemical. Conditions: 10 units laccase ml−1, 1000 mgL−1 oxycodone; for oxygen concentration after the addition of oxycodone, per mediator: mediator 2 mM. As to the method: During the reaction oxygen acts as electron acceptor and is reduced to water by laccases while the mediators are oxidized. The concentration of oxygen was measured as described above. Oxygen is consumed until the mediator is fully oxidized. […] The second step of the reaction is initiated by addition of the target substrate, which is consequently oxidized by the mediators.
In the present experiments the final reaction mixtures contained 0.2 to 6 mM mediator, 1-10 units of laccase per ml and 100-3000 mg L^−1 opioid.
The different mediators were used at concentrations of 2 mM with 10 units laccase ml^−1 and 1000 mgL^−1 oxycodone. The first drop in oxygen concentration represents the oxidation of the respective mediators with the laccase, the second drop—which took place just after the addition of the opioid—was due to the subsequent oxidation of the opioid.

For data set [2], the system named is laccase from Myceliophthora thermophila (MtL). The data set can be described thus: Oxygen measurement of laccase catalysed oxidation of opioids (MtL). The data set is classed as biochemical. Conditions: MtL 10 U/ml, substrate 2 mg/ml, distilled water, room temperature, optical oxygen sensor.
Source text: (§1) Two different laccases were used to achieve elimination of opioids—one of them originated from Trametes villosa (TvL), the other one from Myceliophthora thermophila (MtL).
Data set [3] has as its system laccase. The data set can be described thus: LMS and oxycodone: HPLC-MS/TOF measurements. The following applies: laccase mediator system.
Data set [4] relates to laccase from Trametes villosa (TvL). Briefly: Oxygen measurement of laccase catalysed oxidation of opioids (TvL). Type of data set: biochemical. The following applies: TvL 10 U/ml, substrate 2 mg/ml, distilled water, room temperature, optical oxygen sensor.
Source text: as §1
For data set [5], the system named is horseradish peroxidase and a laccase originating from Myceliophthora thermophila (MtL). Briefly: Inactivation of oxycodone with an enzyme system consisting of peroxidase/laccase. Type of data set: biochemical. Conditions: HRP 10 U/ml, Glucose Oxidase 20 U/ml, Laccase 25 U/ml, Oxycodone 10 mg/ml, Glucose 10 mg/ml, distilled water, room temperature. The source says:
In the present example, the development of an appropriate enzyme system to eliminate opioids from solution can be shown. A peroxidase is used to produce an hydroxyl group in oxycodone while the such “activated” molecule is further transformed by the laccase. Moreover, optimized reaction conditions for effective conversion of the opioid solution preventing administration through injection are provided. Finally, the function of the system is verified by showing the inactivation of the opioid destroying enzymes proteolytically when the drugs are administered as foreseen.
To achieve the elimination of oxycodone, the following enzymes are used: the horseradish peroxidase and a laccase originating from Myceliophthora thermophila (MtL). Glucose Oxidase (GOD, from Aspergillus niger) is used to generate H2O2 which is required for the peroxidase reaction.
To determine whether the laccase act on activated oxycodone an optical oxygen sensor is used. Laccases use oxygen as electron acceptor, consequently the oxygen concentration decreases upon substrate oxidation.
500 μL samples are taken and put into 500 μL of methanol (MeOH) to precipitate the enzyme. The solution is centrifuged using Vivaspin 500 and transferred to an HPLC vial.

Data set [6] relates to laccase. The data set can be described thus: LMS and methadone: oxygen measurements. The data set is classed as biochemical.
In data set [7] the target is T1, Thermobifida cellulosilytica cutinase 1 (THC) (Thermobifida cellulosilytica, UniProt E9LVH8).
T1 construct: made in house
T1 sequence (E9LVH8 1-262): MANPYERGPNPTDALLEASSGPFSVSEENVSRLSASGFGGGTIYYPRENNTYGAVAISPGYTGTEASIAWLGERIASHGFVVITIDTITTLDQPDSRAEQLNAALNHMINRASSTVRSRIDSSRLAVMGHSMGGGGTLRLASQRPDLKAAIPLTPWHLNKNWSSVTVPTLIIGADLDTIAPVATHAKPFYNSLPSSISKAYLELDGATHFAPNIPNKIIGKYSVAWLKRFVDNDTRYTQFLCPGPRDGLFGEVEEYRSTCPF
Type of data set: biochemical.

In data set [8] the test system is Humicola insolens cutinase (HiC). The data set is classed as biochemical.
The test system of data set [9] is laccase. The data set can be described thus: Thin layer chromatography of enzymatic conversion. The data set is classed as biochemical. Conditions: samples at 2, 10, 30, 60, 120 minutes of enzymatic reaction.
The test system of another data set is laccase MTL. Briefly: Polymerization of morphine with laccase from Myceliophthora thermophila (high concentrations). The following applies: 50 mM sodium phosphate buffer pH 7, MTL 10 U to 100 U.
In another data set the target is T2, pepsin (Sus scrofa, UniProt P00791).
T2 construct: purchased Sigma-Aldrich (US) P7000
T2 sequence (P00791 60-385): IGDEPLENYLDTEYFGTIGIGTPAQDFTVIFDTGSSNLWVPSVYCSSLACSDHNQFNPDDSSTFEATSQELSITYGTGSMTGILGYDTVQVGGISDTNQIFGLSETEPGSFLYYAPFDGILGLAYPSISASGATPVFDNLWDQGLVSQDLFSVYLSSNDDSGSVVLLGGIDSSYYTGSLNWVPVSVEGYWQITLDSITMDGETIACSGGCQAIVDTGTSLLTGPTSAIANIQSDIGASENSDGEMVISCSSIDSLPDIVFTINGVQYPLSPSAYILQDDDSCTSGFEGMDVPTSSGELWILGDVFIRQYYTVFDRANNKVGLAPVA
The data set can be described thus: Pepsin digestion assay in simulated gastric fluid with SDS-PAGE analysis. The data set is classed as in vitro ADME. Conditions: SGF pH 1.2 with pepsin, 10000 Units pepsin per 1 mg test protein, 37° C., samples at 0, 0.5, 15 minutes. How it is done:
SGF contains 0.084 M HCl, 0.035 M NaCl, 4000 U of pepsin per reaction mixture and has a pH level of 1.2 according to the United States Pharmacopeia (1995). A ratio of 10000 Units of pepsin activity to 1 mg of test protein was used throughout the assay, which is based on an evaluation of the average activity of pepsin recommended in the United States Pharmacopeia (24th edition, 2000) with some modifications. Pepsin (ref. #P7000) was purchased from Sigma-Aldrich (US). All proteins that were used were dissolved in 50 mM Tris-HCl (pH 9.5) at a concentration of 5 mg mL^−1. The reaction mixture contained 1.52 mL of SGF preheated to 37° C. before the addition of 0.08 mL of protein solution (Thomas et al., 2004). The mixture was placed into a thermomixer at 37° C. and was shaken at 400 rpm. For denaturating SDS-polyacrylamide gel electrophoresis analysis (SDS-PAGE) samples of 160 μl were removed at 0 minutes, 0.5 minutes, and 15 minutes after initiation.
SDS-PAGE was performed to analyze and visually inspect stained protein bands whether the protein band is still intact or fragmented after the digestion assay. […]
Each 160 μl of the digestion samples was quenched by adding 56 μl of 200 mM NaHCO3 as neutralization step and 56 μl 4× Laemmli (Laemmli 1970) buffer for electrophoresis. Samples were immediately heated up to 99° C. for 10 minutes and analyzed directly or stored at −20° C. […]

“Also recorded” adds a separate entry of the source.

With `COc1cc(C=O)ccc1O` [vanillin], in the data set on laccase [1], the “oxygen concentration after the addition of oxycodone, per mediator” value (from here on “oxygen concentration … per mediator”) is reported as “showed a drop in oxygen concentration”.
Take `COc1ccc2c3c1O[C@H]1C(=O)CC[C@@]4(O)[C@@H](C2)N(C)CC[C@]314` [oxycodone, 4,5[alpha]-epoxy-14-hydroxy-3-methoxy-17-methyl-6-morphinanone]: the “oxygen concentration in solution (laccase oxidation of the opioid)” value (from here on “oxygen concentration in solution”) in data set [2] and in data set [4] was “not capable of converting oxycodone” throughout. The “oxidation of oxycodone in the laccase mediator system” value with laccase [1] (mediators vanillin, ethylvanillin, syringic acid 2 mM) was “oxidation of oxycodone”. Besides, the “oxycodone concentration (HPLC-MS/TOF)” value with laccase [3] (mediators 2 mM, vanillin also 6 mM) is reported as “decrease in oxycodone concentration”. Also, the “enzymatic conversion of oxycodone (oxygen consumption measurements, HPLC-MS)” value in data set [5] is recorded as “successfully converted; also recorded: converted to a product which precipitated”.
As to `CCn1c(=NN=c2sc3cc(S(=O)(=O)O)ccc3n2CC)sc2cc(S(=O)(=O)O)ccc21` [ABTS, 2,2′-azino-bis-(3-ethylbenzthiazoline-6-sulfonic acid)], the “effect of the mediator in LMS with methadone (oxygen measurement)” value in the data set with laccase [6] (mediators tested incl. syringic acid, TEMPO, syringol, ABTS) is “best effect”.
With `COc1cc(C(=O)O)cc(OC)c1O` [syringic acid], the “oxygen concentration … per mediator” value in the data set with laccase [1] is listed as “showed a drop in oxygen concentration”.
Consider `CCC(=O)C(CC(C)N(C)C)(c1ccccc1)c1ccccc1` (racemic) [methadone, (±)-6-dimethylamino-4,4-diphenol-3-heptanone], for which, in the data set on laccase [6] (mediator ABTS), the “oxygen concentration in LMS with methadone” value is “decline in oxygen concentration”.
With `CC(=O)Oc1ccc2c3c1O[C@H]1[C@@H](OC(C)=O)C=C[C@H]4[C@@H](C2)N(C)CC[C@@]341` [diacetylmorphine], in [7], the DAM concentration result is recorded as “declines”, the “morphine concentration formed from DAM” value is “only increased in the samples that were incubated at 50 °C” and the “product formed from DAM at lower temperatures” value is “only monoacetylmorphine is produced”. Also, the “diacetylmorphine hydrolyzed (total acetate yield, HPLC/RI)” value in data set [7] (pH 7) was “more than 50%”. In [8], the DAM concentration result is reported as “declines”, the “morphine concentration formed from DAM” value is “only increased in the samples that were incubated at 50 °C” and the “product formed from DAM at lower temperatures” value is reported as “only monoacetylmorphine is produced”. For the same molecule, the “diacetylmorphine hydrolyzed (total acetate yield, HPLC/RI)” value in data set [8] (pH 7) was “more than 50%”.
For `CC[C@@H](c1cccc(O)c1)[C@@H](C)CN(C)C` [tapentadol], in the data set with laccase [9], the “time after which new dots appear on the TLC plate (new product formed)” value came to 2 min and the “time after which the reference dot disappears on TLC (all converted)” value was found to be 120 min. Moreover, the “oxygen concentration in solution” value in data set [2] is on record as “much slower”. For the same molecule, in data set [4], the “oxygen concentration in solution” value is reported as “drops to almost 0% oxygen”.
For the molecule `CCOc1cc(C=O)ccc1O` [ethylvanillin], the “oxygen concentration … per mediator” value in the data set with laccase [1] is on record as “showed a drop in oxygen concentration”.
Consider `CN1CC[C@]23c4c5ccc(O)c4O[C@H]2[C@@H](O)C=C[C@H]3[C@H]1C5` [morphine, 4,5[alpha]-epoxy-17-methyl-7-morphinen-3,6[alpha]-diol], for which the “time after which new dots appear on the TLC plate (new product formed)” value with laccase [9] stood at 2 min. In addition, the “faster degradation of morphine with 10 times more laccase” value in the data set on laccase MTL is roughly 10 times.
For the molecule `O=C(O)c1cc(O)c(O)c(O)c1` [gallic acid], the “oxygen concentration … per mediator” value in the data set with laccase [1] is “no apparent effect”. In addition, in the data set with laccase [3], the “effect of the mediator on oxycodone (MS-TOF analysis)” value was “no apparent effect”.
Regarding HRP: horse radish peroxidase, the “proteolytic degradation of the enzyme (protein band on SDS-PAGE)” value in the data set with pepsin is on record as “very susceptible to proteolytic degradation”.

Source of the values: patent US11077196B2, “Abuse-deterrent pharmaceutical composition” (priority 2016, dated 2021).
